From patent publication US20070149408A1, “METHOD FOR REDUCING NITROSAMINES IN TOBACCO” (UNIVERSITY OF KENTUCKY RESEARCH FOUNDATION, priority 2005, published 2007)

How the values were obtained:
whole tobacco leaf [1] = assay: TSNA in cured tobacco, ferulic acid added to the smoke during fire curing (Example 6); conditions: ferulic acid in wood smoke, versus untreated (Table 6)
Excerpt: In a conventional dark fire tobacco barn, wood lumber was laid on the floor of the barn and sawdust was spread on top of the wood. The lumber was set on fire and the sawdust smoldered and generated wood smoke. Ferulic acid, solid granular, from a conventional source, was sprinkled over the top of the sawdust at the start of the fire curing process and was applied in an amount of one pound per acre of tobacco in the barn, about 5000 tobacco plants. The fire curing started one or two days after the tobacco was harvested and hung in the barn. The ferulic acid lasted about one week on the sawdust during the fire curing.
The fire curing was conducted for a total of 40 days.
After curing, random leaves were collected from the treated tobacco and from the untreated tobacco. Both treated and untreated tobacco were of the same variety and came from two different barns. The untreated tobacco came from a different barn but was fire cured in the same manner as the treated tobacco except for the ferulic acid treatment.

whole tobacco leaf [2] = assay: Total TSNA in cured tobacco, ferulic acid, ethanol and surfactant sprayed two days before harvest (Example 4); conditions: ferulic acid + ethanol + DE FAC 820, versus untreated (Table 4)
Experimental: Tobacco plants were treated by spraying them in the field with an aqueous solution comprising 0.25% wt. by vol. of ferulic acid, 5 gallons ethanol (95%), 250 gallons water and 0.25% by vol. of a non-ionic surfactant (DE FAC 820). This gave a 2% ethanol solution. Fifty (50) gallons of aqueous solution was applied per acre for the treated plants.
Treated and non-treated tobacco was harvested and cured in a conventional dark fire tobacco barn with manual vents for aeration for 6 weeks, one week of natural ventilation followed by five weeks of wood fire curing in a conventional manner. The curing was conducted in a conventional curing barn as is typically found in the dark tobacco production regions of Kentucky and Tennessee. Both the treated and untreated tobacco were the same variety and harvested at the same time.
Random leaves were removed from the cured treated and cured untreated tobacco and TSNA was measured in accordance with Example 1.

Structure (SMILES): COc1cc(C=CC(=O)O)ccc1O [ferulic acid, 4-hydroxy-3-methoxy cinnamic acid]
- reduction in TSNA (whole tobacco leaf [1]): 35%
- reduction in TSNA (whole tobacco leaf [2]): 85%
